test: Relative potency was determined in vitro by measuring the accumulation of cyclic AMP in SV-49 mouse lymphoma cells relative to dl-isoproterenol; assay type: functional

Row | Structure (SMILES) | Relative potency
1 | O=P(O)(O)O.OCCCNCC(O)c1ccc(O)c(O)c1 (centres undefined) | 0.0058
2 | Cc1ccc(C(=O)OCCCC(C)NCC(O)c2ccc(O)c(O)c2)cc1.O=P(O)(O)O (centres undefined) | 0.0063
3 | CC(CCCOC(=O)NC1CCCCC1)NCC(O)c1ccc(O)c(O)c1.Cl (centres undefined) | 29
4 | Cc1ccc(NC(=O)OCCCCC(C)NCC(O)c2ccc(O)c(O)c2)cc1.O=P(O)(O)O (centres undefined) | 1.3
5 | Cc1ccc(C(=O)NC(=O)OCCCC(C)NCC(O)c2ccc(O)c(O)c2)cc1.Cl (centres undefined) | 73
6 | CC(CCO)NCC(O)c1ccc(O)c(O)c1.O=P(O)(O)O (centres undefined) | 0.012
7 | CCCCNC(=O)OCCCC(C)NCC(O)c1ccc(O)c(O)c1.O=P(O)(O)O (centres undefined) | 190
8 | Cc1ccc(NC(=O)OCCCC(C)NCC(O)c2ccc(O)c(O)c2)cc1.O=P(O)(O)O (centres undefined) | 0.092
9 | CC(CCCO)NCC(O)c1ccc(O)c(O)c1.O=P(O)(O)O (centres undefined) | 1.3
